According to patent US8669284B2, “Pharmaceutical composition comprising a bi-cyclic compound and method for stabilizing the bi-cyclic compound” (Sucampo AG, priority 2006, dated 2014):

Legend:
Assay type in all cases: physicochemical
[1] = Stability of compound 1 in vehicle solution, 55° C. storage, HPLC; details: for Concentration of compound 1 after 55° C. storage, day 10: 55° C. for 10 days; for Concentration of compound 1 after 55° C. storage, day 10 / Concentration of compound 1, day 0: percentage based on the theoretical amount; for Concentration of compound 1, day 0: before storage
Method: Compound 1 was dissolved in a vehicle shown in table 1 below to give 240 μg/g solution (sample). The precise concentration of Compound 1 in the solution was determined by means of HPLC (day 0). Then, the solution was put in a hard grass container and kept at 55° C. for 10 days, and then the precise concentration of the compound 1 in the solution was determined by means of HPLC (day 10).
The determination of the concentration of the compound in the sample was carried out as follows. About 0.2 g of the sample was mixed with exactly 2 ml of internal standard solution and then with a dissolving agent shown in Table 1 to give 5 mL of sample solution. About 12 mg of the reference standard compound 1 was weighted precisely and added with acetonitrile to give exactly 100 ml solution. Exactly 0.8 ml of the solution was obtained and added with exactly 4 ml of the internal standard solution, and then added with the dissolving agent to give 10 ml of standard solution.
The fluorescent labeling agent was added to the respective solution, stirred and stood at room temperature. Then, the respective solution in an amount that theoretically gives 3.6 ng of compound 1 was loaded on the column and analyzed under the condition as follows:
Column: 5 mm×25 cm stainless steel column packed with octadecylsilane treated silica gel for HPLC (5 μm)
Mobile phase: mixture of acetonitrile HPLC grade: methanol HPLC grade: ammonium acetate (0.05 mol/L)

[2] = Stability of compound 1 in medium chain fatty acid triglyceride kept with gelatin/glycerin piece at 40° C.; details: 60 μg/g in medium chain fatty acid triglyceride with gelatin piece (gelatin 100, glycerin 35 parts by weight), sealed container, 21 days, on the basis of theoretical amount
Method: One hundred (100) parts by weight of gelatin (Type A, high bloom, SKW Biosystems #195F) and 35 parts by weight of glycerin, a plasticizer, were mixed in water and dried to give gelatin piece whose water content was about 4%. Compound 1 was dissolved in medium chain fatty acid triglyceride (USP/NF grade) to give a liquid mixture comprising 60 μg/g of the compound. 0.5 g of the liquid mixture and 0.5 g of gelatin piece were put together in a sealed container and kept at 40° C. for 21 days. The concentration of compound 1 contained in the liquid mixture was determined in the same manner as Example 1. As a result, the amount of the compound 1 at day 21 was 97.0% on the basis of a theoretical amount (60 μg/g).

[3] = Stability of soft gelatin capsule of compound 1 at 40° C.; details: fill 240 μg/g in medium chain fatty acid triglyceride; for conc. (% of Initial) 40° C. 1 mo: 1 month; for conc. (% of Initial) 40° C. 2 mo: 2 months
Method: Glycerin in an amount shown in Table 3 was added in an appropriate amount of water, stirred and heated. Then, gelatin 100 parts by weight was added thereto to give gelatin solution. Compound 1 was dissolved in medium chain fatty acid triglyceride (USP/NF grade) to give a fill solution containing 240 μg/g of compound 1. The gelatin solution and the fill solution were loaded on capsule forming and filling machine to give capsule containing the fill solution, and dried to give soft gelatin capsule.
The capsule was put in a sealed container and kept at 40° C. for 2 months. The concentration of compound 1 in the fill solution contained in the capsule was determined after 1 and 2 months storage in the same manner as EXAMPLE 1.

[4] = vehicle glycerin, 240 μg/g solution
[5] = vehicle isopropyl palmitate, 240 μg/g solution
[6] = vehicle linolenic acid (comparative), 240 μg/g
[7] = vehicle oleic acid (comparative), 240 μg/g
[8] = vehicle polyethylene glycol 400, 240 μg/g solution
[9] = vehicle propylene glycol ester of fatty acid, 240 μg/g solution
[10] = vehicle propylene glycol, 240 μg/g solution
[11] = soft gelatin capsule shell gelatin 100, glycerin 45 parts by weight
[12] = soft gelatin capsule shell gelatin 100, glycerin 55 parts by weight

CCCCC(F)(F)[C@@]1(O)CC[C@H]2[C@@H](CC(=O)[C@@H]2CCCCCCC(=O)O)O1 [Compound 1, 7-[(2R,4aR,5R,7aR)-2-(1,1-difluoropentyl)-2-hydroxy-6-oxooctahydrocyclopenta[b]pyran-5-yl]heptanoic acid]
stability of compound 1 ([1]; admixing with a polyol and/or a fatty acid ester other than glyceride, versus comparative vehicles): significantly improved | Concentration of compound 1 after 55° C. storage, day 10 [1, 4]: 78.0% | Concentration of compound 1, day 0 [1, 4]: 92.0% | Concentration of compound 1 after 55° C. storage, day 10 ([1]; vehicle hydrogenated maltose starch syrup (comparative), 240 μg/g): 24.4% | Concentration of compound 1 after 55° C. storage, day 10 [1, 5]: 99.1% | Concentration of compound 1, day 0 [1, 5]: 98.9% | Concentration of compound 1 after 55° C. storage, day 10 [1, 6]: 33.1% | Concentration of compound 1, day 0 [1, 6]: 74.8% | Concentration of compound 1 after 55° C. storage, day 10 [1, 7]: 57.3% | Concentration of compound 1, day 0 [1, 7]: 101.7% | Concentration of compound 1 after 55° C. storage, day 10 [1, 8]: 90.1% | Concentration of compound 1, day 0 [1, 8]: 98.2% | Concentration of compound 1 after 55° C. storage, day 10 [1, 9]: 89.0% | Concentration of compound 1, day 0 [1, 9]: 99.9% | Concentration of compound 1 after 55° C. storage, day 10 [1, 10]: 88.6% | Concentration of compound 1, day 0 [1, 10]: 97.8% | Concentration of compound 1 after 55° C. storage, day 10 ([1]; vehicle sugar alcohol solution derived from corn starch (comparative), 240 μg/g): 26.3% | amount of the compound 1 at day 21 [2]: 97.0% | conc. (% of Initial) 40° C. 1 mo [3, 11]: 100.0% | conc. (% of Initial) 40° C. 2 mo [3, 11]: 98.7% | conc. (% of Initial) 40° C. 1 mo [3, 12]: 97.7% | conc. (% of Initial) 40° C. 2 mo [3, 12]: 94.0%
